Measurements published in patent US6500842B1, “8-hydroxy-7-substituted quinolines as anti-viral agents” (Pharmacia & Upjohn Company, priority 1996, dated 2002).
Where “and” joins values, the source holds several entries; their conditions need not be identical. Identical values can stand only once.

target: T1, HCMV polymerase (Human cytomegalovirus, UniProt P08546); assay: HCMV polymerase assay (scintillation proximity assay); format: biochemical; conditions: Conc 1.00e−004 M; Table 2
T1 construct: made in house; host or cells: recombinant baculovirus-infected SF-9 cells
T1 sequence (P08546 whole entry): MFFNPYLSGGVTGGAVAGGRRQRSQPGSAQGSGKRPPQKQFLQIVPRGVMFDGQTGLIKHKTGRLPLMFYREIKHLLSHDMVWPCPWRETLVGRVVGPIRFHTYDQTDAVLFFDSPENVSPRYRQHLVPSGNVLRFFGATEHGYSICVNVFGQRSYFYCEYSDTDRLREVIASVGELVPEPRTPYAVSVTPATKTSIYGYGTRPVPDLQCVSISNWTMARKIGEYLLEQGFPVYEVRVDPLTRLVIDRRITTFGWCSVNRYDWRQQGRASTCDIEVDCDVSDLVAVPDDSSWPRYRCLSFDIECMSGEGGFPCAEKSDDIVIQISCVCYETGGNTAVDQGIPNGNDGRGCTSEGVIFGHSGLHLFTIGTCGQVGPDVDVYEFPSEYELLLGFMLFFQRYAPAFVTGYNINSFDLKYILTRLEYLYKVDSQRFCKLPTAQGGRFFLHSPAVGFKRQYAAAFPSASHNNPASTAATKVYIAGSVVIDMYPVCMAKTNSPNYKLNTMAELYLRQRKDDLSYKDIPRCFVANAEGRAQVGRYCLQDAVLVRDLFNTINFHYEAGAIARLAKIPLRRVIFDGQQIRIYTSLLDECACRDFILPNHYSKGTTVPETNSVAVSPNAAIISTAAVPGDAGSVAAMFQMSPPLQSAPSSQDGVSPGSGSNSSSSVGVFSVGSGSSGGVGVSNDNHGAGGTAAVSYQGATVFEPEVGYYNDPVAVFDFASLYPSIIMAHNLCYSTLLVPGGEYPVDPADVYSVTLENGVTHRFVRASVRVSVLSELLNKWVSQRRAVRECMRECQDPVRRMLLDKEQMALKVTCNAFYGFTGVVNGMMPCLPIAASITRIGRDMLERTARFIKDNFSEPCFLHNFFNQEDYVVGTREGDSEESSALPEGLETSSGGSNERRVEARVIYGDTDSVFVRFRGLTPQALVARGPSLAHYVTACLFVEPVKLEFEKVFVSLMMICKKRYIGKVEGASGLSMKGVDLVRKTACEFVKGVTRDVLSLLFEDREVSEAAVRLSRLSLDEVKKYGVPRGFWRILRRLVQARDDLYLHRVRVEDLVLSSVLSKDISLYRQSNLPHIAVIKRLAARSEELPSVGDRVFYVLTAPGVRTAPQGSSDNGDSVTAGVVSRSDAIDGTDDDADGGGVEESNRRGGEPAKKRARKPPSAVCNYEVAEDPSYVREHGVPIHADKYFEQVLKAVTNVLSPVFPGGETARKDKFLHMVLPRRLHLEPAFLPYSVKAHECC
Experimental: The HCMV polymerase assay is performed using a scintillation proximity assay (SPA) as described in several references, such as N. D. Cook, et al., Pharmaceutical Manufacturing International, pages 49-53 (1992); K. Takeuchi, Laboratory Practice, September issue (1992); U.S. Pat. No. 4,568,649 (1986); which are incorporated by reference herein. Reactions are performed in 96-well plates. The assay is conducted in 100 μl volume with 5.4 mM HEPES (pH 7.5), 11.7 mM KCl, 4.5 mM MgCl2, 0.36 mg/ml BSA, and 90 nM ^3H-dTTP. Assays are run with and without CHAPS, (3-[(3-Cholamidopropyl)-dimethylammonio]-1-propane-sulfonate) at a final concentration of 2 mM. HCMV is diluted in enzyme dilution buffer containing 50% glycerol, 250 mM NaCl, 10 mM HEPES (pH 7.5), 100 pg/ml BSA, and 0.01% sodium azide. The HCMV polymerase, which is expressed in recombinant baculovirus-infected SF-9 cells and purified according to literature procedures, is added at 10% (or 10 μl) of the final reaction volume, i.e., 100 μl. Compounds are diluted in 50% DMSO and 10 μl are added to each well. Control wells contain an equivalent concentration of DMSO. Unless noted otherwise, reactions are initiated via the addition of 6 nM biotinylated poly(dA)-oligo(dT) template/primer to reaction mixtures containing the enzyme, substrate, and compounds of interest. Plates are incubated in a 25° C. of 37° C. H2O bath and terminated via the addition of 40 μl/reaction of 0.5 M EDTA (pH 8) per well. Reactions are terminated within the time-frame during which substrate incorporation is linear and varied depending upon the enzyme and conditions used, i.e., 30 min. for HCMV polymerase. Ten μl of streptavidin-SPA beads (20 mg/ml in PBS/10% glycerol) are added following termination of the reaction. Plates are incubated 10 min. at 37° C., then equilibrated to room temperature, and counted on a Packard Topcount. Linear regressions are performed and IC50's are calculated using computer software. Results of the testing of compounds of the present invention in this assay are shown in Tables 1, 2, 5, 9, 10, 11, 13 (except for the last compound which was tested under modified conditions) and 14 below.

% Inhib | SMILES
98.2% and 99.7% | O=S(=O)(NCc1ccccc1)c1cc(Cl)c2cccnc2c1O [Example 22, 5-Chloro-8-hydrxoy-N-(phenylmehtyl)-7-quinolinesulfonamide]
97% | Cc1ccc2c(Cl)cc(S(=O)(=O)NCc3ccc(F)cc3)c(O)c2n1 [Example 30]

same assay, conditions: Conc 1.30e−005 M; Table 2

% Inhib | SMILES
68.9% and 78.3% | O=S(=O)(NCc1ccccc1)c1cc(Cl)c2cccnc2c1O [Example 22, 5-Chloro-8-hydrxoy-N-(phenylmehtyl)-7-quinolinesulfonamide]
73.4% | Cc1ccc2c(Cl)cc(S(=O)(=O)NCc3ccc(F)cc3)c(O)c2n1 [Example 30]

same assay, conditions: Conc 2.50e−005 M; Table 2

% Inhib | SMILES
90.7% and 95.2% | O=S(=O)(NCc1ccccc1)c1cc(Cl)c2cccnc2c1O [Example 22, 5-Chloro-8-hydrxoy-N-(phenylmehtyl)-7-quinolinesulfonamide]
87.5% | Cc1ccc2c(Cl)cc(S(=O)(=O)NCc3ccc(F)cc3)c(O)c2n1 [Example 30]

same assay, conditions: Conc 3.13e−006 M; Table 2

% Inhib | SMILES
42.6% | Cc1ccc2c(Cl)cc(S(=O)(=O)NCc3ccc(F)cc3)c(O)c2n1 [Example 30]

same assay, conditions: Conc 5.00e−005 M; Table 2

% Inhib | SMILES
96.7% and 98.6% | O=S(=O)(NCc1ccccc1)c1cc(Cl)c2cccnc2c1O [Example 22, 5-Chloro-8-hydrxoy-N-(phenylmehtyl)-7-quinolinesulfonamide]
95.4% | Cc1ccc2c(Cl)cc(S(=O)(=O)NCc3ccc(F)cc3)c(O)c2n1 [Example 30]

same assay, conditions: Conc 6.25e−006 M; Table 2

% Inhib | SMILES
33.3% and 51.5% | O=S(=O)(NCc1ccccc1)c1cc(Cl)c2cccnc2c1O [Example 22, 5-Chloro-8-hydrxoy-N-(phenylmehtyl)-7-quinolinesulfonamide]
59.9% | Cc1ccc2c(Cl)cc(S(=O)(=O)NCc3ccc(F)cc3)c(O)c2n1 [Example 30]

same assay, conditions: Table 5; pol type CMV; read-out: IC50

IC50 | SMILES
8 µM | O=C(NCc1ccc(Cl)cc1)c1ccc2ccc(/C=C/c3ccco3)nc2c1O [Example 57, N-[(4-Chlorophenyl)methyl]-2-[2-(2-furyl)ethenyl]-8-hydroxy-7-quinolinecarboxamide]

same assay, conditions: Table 9; read-out: CMV pol Assay- IC50

IC50 | SMILES
2.6 µM | CC(NC(=O)c1ccc2cccnc2c1O)c1ccc(Br)cc1 (stereo not shown)
11.3 µM and 9.2 µM | O=C(N[C@@H](CO)C(=O)OCc1ccccc1)c1ccc2cccnc2c1O
19.2 µM | O=C(N[C@@H]1CC2CCC1C2)c1ccc2cccnc2c1O (stereo partly shown)
24.3 µM | O=C(NC1C2CC3CC(C2)CC1C3)c1ccc2cccnc2c1O (stereo not shown)
3.7 µM | O=C(NCc1cccc2ccccc12)c1ccc2cccnc2c1O
8.5 µM | O=C(NCc1cccc(C(F)(F)F)c1)c1ccc2cccnc2c1O
20.6 µM | CC1CCCC(NC(=O)c2ccc3cccnc3c2O)C1 (stereo not shown)
3 µM | C[C@H](NC(=O)c1ccc2cccnc2c1O)c1cccc2ccccc12
21.1 µM | O=C(NCCC1=CCCCC1)c1ccc2cccnc2c1O
23.2 µM | Cc1ccccc1CNC(=O)c1ccc2cccnc2c1O
13.2 µM | O=C(NC1CCc2ccccc21)c1ccc2cccnc2c1O (stereo not shown)
12.1 µM | COC(=O)C(Cc1ccc(O)cc1)NC(=O)c1ccc2cccnc2c1O (stereo not shown)
7.6 µM | O=C(NC1CCCCCCC1)c1ccc2cccnc2c1O
9.3 µM | O=C(NCCCc1ccccc1)c1ccc2cccnc2c1O
17.5 µM | O=C(NCc1ccc(F)c(Cl)c1)c1ccc2cccnc2c1O
1.7 µM | CCCCCCC(C)NC(=O)c1ccc2cccnc2c1O (stereo not shown)
5.6 µM | O=C(NCc1ccc(Cl)c(Cl)c1)c1ccc2cccnc2c1O
23.8 µM | O=C(NC1CCCCCC1)c1ccc2cccnc2c1O

IC50 | SMILES
20.1 µM | O=C(NCCc1ccc(O)cc1)c1ccc2cccnc2c1O
5 µM | O=C(NCCc1ccc(Br)cc1)c1ccc2cccnc2c1O
3.1 µM | O=C(N[C@H](CO)Cc1ccc(O)cc1)c1ccc2cccnc2c1O
0.9 µM | O=C(NCC(c1ccccc1)c1ccccc1)c1ccc2cccnc2c1O
4.5 µM | O=C(NCCc1ccc(Oc2ccccc2)cc1)c1ccc2cccnc2c1O
5.2 µM | CCCCCCCNC(=O)c1ccc2cccnc2c1O
24.5 µM | C[C@@H](NC(=O)c1ccc2cccnc2c1O)c1ccccc1
13.7 µM | O=C(NCc1ccc(C(F)(F)F)cc1)c1ccc2cccnc2c1O
10.8 µM | COC(=O)[C@H](Cc1ccc([N+](=O)[O-])cc1)NC(=O)c1ccc2cccnc2c1O
23.3 µM | CC1CCC(NC(=O)c2ccc3cccnc3c2O)CC1 (stereo not shown)
< 1.5 µM | O=C(NCCC(c1ccccc1)c1ccccc1)c1ccc2cccnc2c1O
< 3.1 µM and 2.4 µM and 10.8 µM | C[C@@H](NC(=O)c1ccc2cccnc2c1O)c1cccc2ccccc12
8.1 µM | O=C(NCc1ccc(Cl)cc1)c1ccc2cccnc2c1O [drawing 169]
2.2 µM | CCCCCCCCCNC(=O)c1ccc2cccnc2c1O
14.6 µM | O=C(NCc1cccc(Cl)c1Cl)c1ccc2cccnc2c1O
7.4 µM | O=C(NCCCCc1ccccc1)c1ccc2cccnc2c1O
19.3 µM | COc1cc(CNC(=O)c2ccc3cccnc3c2O)ccc1O

same assay, conditions: Table 10; CMV pol Assay; read-out: IC50

IC50 | SMILES
2.4 µM | O=C(Nc1ccc(S(=O)(=O)Nc2ccc3cn[nH]c3c2)cc1)c1ccc2cccnc2c1O
> 100 µM | N#Cc1ccc(NC(=O)c2ccc3cccnc3c2O)cc1 [drawing 210]
14.7 µM | Cc1ccc(F)cc1NC(=O)c1ccc2cccnc2c1O [drawing 222]
15.5 µM | O=C(Nc1ccc2ccccc2c1)c1ccc2cccnc2c1O
21.6 µM | O=C(Nc1ccc(Br)cn1)c1ccc2cccnc2c1O
3.1 µM | CCCc1ccc(NC(=O)c2ccc3cccnc3c2O)cc1
12.5 µM | O=C(Nc1ccccc1I)c1ccc2cccnc2c1O
6.9 µM | O=C(Nc1ccc(Oc2ccccc2)cc1)c1ccc2cccnc2c1O
27.3 µM | O=C(Nc1ccccc1F)c1ccc2cccnc2c1O
3.9 µM | O=C(Nc1ccc(Oc2ccc([N+](=O)[O-])cc2)cc1)c1ccc2cccnc2c1O
13.6 µM | O=C(Nc1ccc2[nH]ccc2c1)c1ccc2cccnc2c1O
4.3 µM | O=C(Nc1ccccc1-c1ccccc1)c1ccc2cccnc2c1O
22.4 µM | COc1ccc(NC(=O)c2ccc3cccnc3c2O)c([N+](=O)[O-])c1
25.5 µM | CSc1cccc(NC(=O)c2ccc3cccnc3c2O)c1
10.3 µM | O=C(Nc1cccc2cccnc12)c1ccc2cccnc2c1O
3.3 µM | O=C(Nc1ccc([N+](=O)[O-])cc1Cl)c1ccc2cccnc2c1O
27.9 µM | O=C(Nc1ccccc1-n1cccc1)c1ccc2cccnc2c1O
90 µM | Cc1noc(NS(=O)(=O)c2ccc(NC(=O)c3ccc4cccnc4c3O)cc2)c1C
6.9 µM | O=C(Nc1ccc(Br)cc1F)c1ccc2cccnc2c1O
26.3 µM | O=C(Nc1cc(F)cc(F)c1)c1ccc2cccnc2c1O
14.5 µM | O=C(Nc1ccc2cccc(O)c2n1)c1ccc2cccnc2c1O
6.6 µM | Cc1ccc(F)cc1NC(=O)c1ccc2cccnc2c1O [drawing 282]
7.9 µM | COc1cc(Cl)c(C)cc1NC(=O)c1ccc2cccnc2c1O
> 100 µM | O=C(Nc1ccc(Sc2ccc([N+](=O)[O-])cc2)cc1)c1ccc2cccnc2c1O
30.5 µM | O=C(Nc1cc(Cl)c(O)c(Cl)c1)c1ccc2cccnc2c1O
> 100 µM | O=C(Nc1ccccc1[N+](=O)[O-])c1ccc2cccnc2c1O
18.4 µM | O=C(Nc1cccc(C(F)(F)F)c1)c1ccc2cccnc2c1O

same assay, conditions: Table 11; read-out: CMV pol Assay IC50

IC50 | SMILES
15.4 µM | COC(=O)[C@H](Cc1ccccc1)Nc1nnc(NC(=O)c2ccc3cccnc3c2O)s1
22.6 µM | O=C(Nc1nnc(NC(C(=O)O)c2ccc3c(c2)OCO3)s1)c1ccc2cccnc2c1O (stereo not shown)
11.4 µM | CC(C)C[C@H](Nc1nnc(NC(=O)c2ccc3cccnc3c2O)s1)C(=O)OC(C)(C)C
26.6 µM | CSCC[C@H](Nc1nnc(NC(=O)c2ccc3cccnc3c2O)s1)C(=O)OC(C)(C)C

same assay, conditions: Table 13; 100 μM

inhibition at 100 µM | SMILES
35% | Cc1cc(C(F)(F)F)nc2c(O)c(C(=O)NCc3ccc(Cl)cc3)ccc12

same assay, conditions: Table 13; read-out: IC50

IC50 | SMILES
5.2 µM | O=C(NC1=NC(=O)C(c2cccc([N+](=O)[O-])c2)S1)c1ccc2cccnc2c1O (stereo not shown)
1.7 µM | O=C(NC1=NC(=O)C(Cc2ccc(Cl)cc2)S1)c1ccc2cccnc2c1O (stereo not shown)

same assay, conditions: Table 14; 25 uM

inhibition at 25 µM | SMILES
93% | O=C(N[C@H](CO)Cc1ccccc1)c1ccc2cccnc2c1O

same assay, conditions: Table 14; read-out: IC50

IC50 | SMILES
29 µM | O=C(NCCOc1ccccc1)c1ccc2cccnc2c1O
26 µM | CC[C@H](C)C(CO)NC(=O)c1ccc2cccnc2c1O (stereo partly shown)
14 µM | O=C(NC(CO)C(O)c1ccccc1)c1ccc2cccnc2c1O (stereo not shown)
54 µM | N#CC(NC(=O)c1ccc2cccnc2c1O)c1ccccc1 (stereo not shown)
42 µM | O=C(NCCNc1ccc([N+](=O)[O-])cn1)c1ccc2cccnc2c1O
19 µM | O=C(N[C@@H](CO)c1ccccc1)c1ccc2cccnc2c1O
51 µM | CC(C)C[C@H](NC(=O)c1ccc2cccnc2c1O)C(=O)OC(C)(C)C
27 µM | CCCCCCNC(=O)c1ccc2cccnc2c1O
26 µM | O=C(NCc1ccc2c(c1)OCO2)c1ccc2cccnc2c1O
41 µM | C[C@H](NC(=O)c1ccc2cccnc2c1O)[C@H](O)c1ccccc1
34 µM | O=C(NCc1cccs1)c1ccc2cccnc2c1O

same assay, conditions: pol type CMV; Table 1; read-out: CMV pol Assay IC50

IC50 | SMILES
23.4 µM | O=C(Nc1nnc(-c2ccc(Cl)cc2)s1)c1ccc2cccnc2c1O [Example 14, N-[5-(4-Chlorophenyl)-1,3,4-thiadiazol-2-yl]-8-hydroxy-7-quinolinecarboxamide]
10.2 µM | O=C(NCc1ccc(Cl)cc1)c1ccc2cccnc2c1O [Example 1, N-[(4-Chlorophenyl)methyl]-8-hydroxy-7-quinolinecarboxamide]

same assay, conditions: pol type CMV; Table 2; read-out: IC50

IC50 | SMILES
8.6 µM and 4.5 µM | O=S(=O)(NCc1ccccc1)c1cc(Cl)c2cccnc2c1O [Example 22, 5-Chloro-8-hydrxoy-N-(phenylmehtyl)-7-quinolinesulfonamide]
4.3 µM | Cc1ccc2c(Cl)cc(S(=O)(=O)NCc3ccc(F)cc3)c(O)c2n1 [Example 30]
